Patent US12090204B2, “Photodynamic therapy compositions and methods of use thereof” (Pinnacle Biologics, Inc., priority 2020, dated 2024)
Values joined by “and” are separate entries in the source; they are usually repeats but may differ in a detail not shown here. Identical values can stand only once.

System: methicillin-resistant Staphylococcus aureus (MRSA), Staphylococcus aureus ATCC BAA 1768
Assay: partial thickness wound model, microbial load in tissue biopsy (Example 4)
Assay type: in vivo, Yorkshire pig
Settings: for TISSUE BIOPSY (CFU/mm^2) 24 hr. after treatment 2: individual wounds
Method: Bacteria strains were obtained from ATCC (Manassas, VA). Bacteria were propagated from glycerol stock store at −80° C. A stab of the glycerol stock was used to inoculate 5 mL of trypticase soy broth. The cultures were incubated overnight at 37° C. with shaking at 250 rpm. The following day, a portion of overnight culture was used to prepare a streak plate onto an Oxacillin screen plate which was incubated overnight at 37° C. and single colony isolates of freshly plated bacteria were used to prepare bacterial inoculum. The morning of wounding an infection, a portion of overnight culture was used to inoculate 50 mL of trypticase soy broth and the newly inoculated media was incubated at 37° C. with shaking at 250 rpm until log phase growth was reached. The bacteria were pelleted by centrifugation at 4,000 rpm at 4° C. for 10 minutes in a Sorval tabletop centrifuge. The culture supernatant was discarded, and the bacterial pellets were suspended in a volume of sterile PBS to yield a concentration of 2×10^7 CFU/mL.
Tissue samples were obtained using an 8 mm biopsy punch. The biopsy punch was placed into a homogenization tube containing 1 mL of sterile PBS and stainless steel homogenization beads and the tissues were homogenized in a Reich MM300 mixer mill homogenizer. Serial 10-fold dilutions of the tissue homogenates were prepared in sterile PBS and 100 microliters of select dilutions for each wound were plated onto agar plates. The plates were incubated at 35-37° C. and the colonies were enumerated manually. Microbial loads were normalized at CFU/mm^2 of tissue surface area per punch.
This study evaluated the ability of porfimer sodium to reduce/eliminate microbial colonization and biofilm from surgical sites in a partial thickness would healing model. The study was conducted in a single female Yorkshire pig over the course of five days. A dermatome was used to create 20 partial thickness wounds. Sixteen of the wounds were infected with methicillin-resistant Staphylococcus aureus (MRSA), and four were designated as uninfected controls. The wounds were bandaged and the bacterial biofilm allowed to develop for 48 hours.
Designated infected wounds were subjected to two courses of treatment with the test article at a periodicity of 24 hours. […]
Treatments consisted of application of the test article followed by photoactivation with one or two intensities of light, 150 J/cm^2 or 200 J/cm^2 (Table 3). Wounds were evaluated for microbial load prior to each course of treatment, immediately following the final treatment and 24 hours following the final treatment. […]

porfimer sodium
Mean microbial load, Tissue (Group 3 (150 J/cm^2), N 6): 8.13E+03 CFU/mm^2
TISSUE BIOPSY (CFU/mm^2) 24 hr. after treatment 2 (Group 3 = 150 J/cm2 treatment): 4.28E+03 CFU/mm^2 and 1.57E+04 CFU/mm^2 and 2.78E+03 CFU/mm^2 and 4.73E+03 CFU/mm^2 and 1.05E+04 CFU/mm^2
Mean microbial load, Tissue (Group 4 (200 J/cm^2), N 3, without wounds L6, R5, R9): 2.64E+03 CFU/mm^2
TISSUE BIOPSY (CFU/mm^2) 24 hr. after treatment 2 (Group 4 = 200 J/cm2 treatment): 6.27E+03 CFU/mm^2 and 5.47E+02 CFU/mm^2 and 1.11E+03 CFU/mm^2 and 8.35E+03 CFU/mm^2 and 3.36E+03 CFU/mm^2
